Results on one cell line are retold here after the supplement of paper PMC10307832.

Common to all, as to experiment: relative viability (nuclei count vs DMSO), 5 days (fraction); higher = more cells survive
Compound in assay [1]: C[C@@H](N)c1ccc(C(=O)Nc2ccnc3[nH]ccc23)cc1 + C[C@@H](Oc1cc(-c2cnn(C3CCNCC3)c2)cnc1N)c1c(Cl)ccc(F)c1Cl [Crizotinib] (partner 1 µM)
In outline:
(§1)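 Lung cancer cell lines, seeded in 1536-well plates, were treated the following day by pin tool with a single drug or with five library-drug doses (not always all listed) in √10 steps on top of a fixed anchor-drug dose. Cells were fixed and nuclei stained in one step after 5 days, and nuclei were counted. Relative viability is the nuclei count for treated wells divided by that for vehicle wells, reported as medians of duplicate plates.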

Compound in the assay “Tanzisertib + Bortezomib”: O[C@H]1CC[C@H](Nc2ncc3nc(Nc4c(F)cc(F)cc4F)n([C@H]4CCOC4)c3n2)CC1 [Tanzisertib] + CC(C)C[C@H](NC(=O)[C@H](Cc1ccccc1)NC(=O)c1cnccn1)B(O)O [Bortezomib] (partner 0.002 µM)
The procedure, abridged: as §1

Compound in assay [2]: C[C@@H](N)c1ccc(C(=O)Nc2ccnc3[nH]ccc23)cc1 + CCNC(=O)c1noc(-c2cc(C(C)C)c(O)cc2O)c1-c1ccc(CN2CCOCC2)cc1 [Luminespib] (partner 0.01 µM)
The procedure, abridged:
as §1

Compound in the assay “Tanzisertib + Decitabine”: O[C@H]1CC[C@H](Nc2ncc3nc(Nc4c(F)cc(F)cc4F)n([C@H]4CCOC4)c3n2)CC1 [Tanzisertib] + Nc1ncn([C@H]2C[C@H](O)[C@@H](CO)O2)c(=O)n1 [Decitabine] (partner 2 µM)
In outline:
as §1

On to UMC-11, for which the relative viability turned out to be 0.714 in assay [1] (first compound 0.04 µM); 0.615 in assay [1] (first compound 0.1265 µM); 0.79 in assay [1] (first compound 0.4 µM); 0.749 in assay [1] (first compound 1.265 µM); 0.346 in assay [1] (first compound 4 µM); 0.754 with Tanzisertib + Bortezomib (first compound 0.08 µM). In addition, the relative viability with Tanzisertib + Bortezomib (first compound 0.253 µM) turned out to be 0.749; with Tanzisertib + Bortezomib (first compound 0.8 µM), 0.825; in the assay with Tanzisertib + Bortezomib (first compound 2.53 µM), 0.709; with Tanzisertib + Bortezomib (first compound 8 µM), 0.946; in assay [2] (first compound 0.04 µM), 1.08; in assay [2] (first compound 0.1265 µM), 1.06. Besides, the relative viability was determined as 1.04 in assay [2] (first compound 0.4 µM); 0.989 in assay [2] (first compound 1.265 µM); 0.826 in assay [2] (first compound 4 µM); 0.662 in the assay with Tanzisertib + Decitabine (first compound 0.08 µM); 0.688 with Tanzisertib + Decitabine (first compound 0.253 µM); 0.654 in the assay with Tanzisertib + Decitabine (first compound 0.8 µM). Besides, the relative viability with Tanzisertib + Decitabine (first compound 2.53 µM) amounted to 0.852; with Tanzisertib + Decitabine (first compound 8 µM), 0.85.
